Test results reported in publication PMC5120204, “Identification of an orally active small-molecule PTHR1 agonist for the treatment of hypoparathyroidism” (Nature Communications, 2016).
Where two headings read alike, the source gives them in different places.

Columns and labels:
hPTHR1 = target: T1, hPTHR1 (Homo sapiens, UniProt Q03431); experiment: cAMP production assay in COS-7 cells expressing hPTHR1; type: cell-based; details: COS-7 cells expressing hPTHR1, 20 min
T1 construct: similar to that of cells expressing full-length hPTHR1; expressed in transfected cells; host or cells: COS-7 (transient, FuGENE HD)
T1 sequence (Q03431 27-593 E93Y/D94P/K95Y/E96D/A97V/T99D/G100Y/S101A): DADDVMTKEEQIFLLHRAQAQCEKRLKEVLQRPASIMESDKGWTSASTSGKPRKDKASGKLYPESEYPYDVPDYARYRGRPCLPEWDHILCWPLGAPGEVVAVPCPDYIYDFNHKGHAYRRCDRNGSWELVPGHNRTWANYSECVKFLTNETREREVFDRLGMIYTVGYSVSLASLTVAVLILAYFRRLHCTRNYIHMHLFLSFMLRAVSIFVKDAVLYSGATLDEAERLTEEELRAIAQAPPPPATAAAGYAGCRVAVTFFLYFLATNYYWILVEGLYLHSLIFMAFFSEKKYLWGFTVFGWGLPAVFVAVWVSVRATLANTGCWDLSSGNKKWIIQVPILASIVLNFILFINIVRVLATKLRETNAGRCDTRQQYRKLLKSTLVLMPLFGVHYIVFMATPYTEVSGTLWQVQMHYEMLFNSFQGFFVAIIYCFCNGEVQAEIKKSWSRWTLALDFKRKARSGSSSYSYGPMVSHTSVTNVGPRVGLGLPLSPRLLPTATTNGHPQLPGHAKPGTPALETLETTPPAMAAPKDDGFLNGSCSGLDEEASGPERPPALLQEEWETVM
Experimental: (§1) COS-7 cells (ATCC) were seeded into a 96-well flat-bottomed plate (1.4 × 10^4 cells per 100 μl per well) and incubated overnight. The next day, the COS-7 cells were transfected by adding 10 μl of a mixture of hPTHR1, hPTHR2 or mutant hPTHR1 plasmid, rat PTHR1 or rat PTHR2 plasmid, or empty vector (0.1 μg per well), FuGENE HD Transfection Reagent (0.4 μl per well, Promega), and Opti-MEM I Reduced Serum Medium (10 μl per well, Life Technologies) to each well. […] The plate was placed in a 37 °C constant-temperature water bath for 20 min to allow the reaction to proceed. After incubation, the liquid in the wells was discarded, the wells were washed with the assay medium (100 μl per well), and the plate was frozen on dry ice. Next, 40 μl of 50 mmol l^−1 HCl was added to each well, and the plate was stored in a freezer set at ≤−20 °C. The cAMP concentrations were measured by using a cAMP EIA kit (GE Healthcare). EC50 values were determined from three independent experiments in duplicate by a non-linear regression Emax model (JMP ver.9.0.2, SAS Institute). The geometric mean of the EC50 values obtained in three experiments in duplicate was calculated using Microsoft Office Excel 2007. […]

[1] = target: T2, hPTHR1–hPTHR2 chimeric receptors (C1, C2, C3) and mutant hPTHR1s (M24, M25, M26, M414V, P415L, L416V) (Homo sapiens, UniProt Q03431, A426C/A97V/D353E/D94P/DEL429-429/E431S/E93Y/E96D/G100Y/G350R/I363Y/K359I/K95Y/L436G/L446F/M425V/M445L/N348D/N358D/Q438E/Q440R/S101A/S341V/S356A/S370A/S433T/T349A/T427L/T430H/T435L/T99D/V334A/V338A/V340A/V342A/V365A/V372G/V432F/V439I/Y443C); type: cell-based; details: cells expressing C3
T2 construct: expressed in transfected cells; host or cells: COS-7 (transient)
Experimental: as §1

[2] = tested on: hPTHR1–hPTHR2 chimeric receptors (C1, C2, C3) and mutant hPTHR1s (M24, M25, M26, M414V, P415L, L416V); type: cell-based, human
Experimental: as §1

[3] = Pharmacokinetics in normal rats; details: for half-life / AUC(0-inf) / Cmax / Tmax: female, RccHan:WIST, rat, plasma, po
Experimental: PCO371 was administered at a dose of 2, 6 or 18 mg kg^−1 orally to 7-week-old normal female rats (RccHan: WIST, JLA; three rats for each dose group), or at a dose of 2, 6 or 18 mg kg^−1 orally to 7-week-old female TPTX rats [Crl:CD(SD), Charles River Laboratories; three TPTX rats for each dose group] or at 30 mg kg^−1 orally or 3, 10 mg kg^−1 intravenously to 55-week-old OVX rats as described above. Blood samples were collected at 15 and 30 min, and 1, 2, 4, 8 and 24 h after administration. […] The concentrations of plasma PCO371 were determined by liquid chromatography–tandem mass spectrometry [LC-MS/MS (API-3200 (AB SCIEX), detection limit: 1 ng ml^−1).

[4] = Pharmacokinetics in TPTX rats; type: in vivo, rat; details: female, Crl:CD(SD), rat, plasma, po
[5] = Pharmacokinetics in OVX rats; type: in vivo; details: female, Crl:CD(SD), rat, plasma, iv
rat PTHR2 = target: T3, rat PTHR2 (Rattus norvegicus, UniProt P70555); experiment: cAMP production assay in COS-7 cells expressing rat PTHR2; type: cell-based
T3 construct: expressed in transfected cells; host or cells: COS-7 (transient)
Experimental: as §1

T2 sequence (Q03431 other isoform, or with tags, fused parts or gaps with the stated changes): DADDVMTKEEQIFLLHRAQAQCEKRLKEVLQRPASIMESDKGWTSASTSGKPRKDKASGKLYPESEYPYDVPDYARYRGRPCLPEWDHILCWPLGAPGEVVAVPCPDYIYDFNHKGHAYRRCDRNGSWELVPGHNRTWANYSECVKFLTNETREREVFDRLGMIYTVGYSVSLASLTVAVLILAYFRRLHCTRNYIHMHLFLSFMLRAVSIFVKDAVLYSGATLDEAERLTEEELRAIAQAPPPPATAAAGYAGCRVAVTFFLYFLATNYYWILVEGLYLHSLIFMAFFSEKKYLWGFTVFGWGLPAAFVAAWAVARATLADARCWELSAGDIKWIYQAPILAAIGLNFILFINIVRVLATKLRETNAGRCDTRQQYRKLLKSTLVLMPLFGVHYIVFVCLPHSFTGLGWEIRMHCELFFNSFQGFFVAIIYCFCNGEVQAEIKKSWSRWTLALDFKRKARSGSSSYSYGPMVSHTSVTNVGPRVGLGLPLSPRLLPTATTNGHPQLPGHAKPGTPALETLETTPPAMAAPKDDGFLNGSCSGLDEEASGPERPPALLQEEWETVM
T3 sequence (P70555 25-546): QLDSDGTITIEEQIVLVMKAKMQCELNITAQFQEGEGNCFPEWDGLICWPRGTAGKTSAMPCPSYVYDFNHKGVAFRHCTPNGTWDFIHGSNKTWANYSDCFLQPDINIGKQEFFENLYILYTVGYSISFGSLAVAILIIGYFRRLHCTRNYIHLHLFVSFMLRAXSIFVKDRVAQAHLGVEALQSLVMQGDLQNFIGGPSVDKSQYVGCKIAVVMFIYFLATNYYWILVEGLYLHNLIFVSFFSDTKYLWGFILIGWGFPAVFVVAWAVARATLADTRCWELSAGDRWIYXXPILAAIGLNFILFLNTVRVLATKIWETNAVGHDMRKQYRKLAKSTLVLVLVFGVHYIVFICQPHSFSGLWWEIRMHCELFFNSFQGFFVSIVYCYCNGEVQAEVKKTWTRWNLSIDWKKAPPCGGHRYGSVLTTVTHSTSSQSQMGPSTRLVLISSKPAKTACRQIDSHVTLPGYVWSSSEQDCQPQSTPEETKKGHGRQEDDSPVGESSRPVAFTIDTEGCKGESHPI

SMILES: Cc1cc(N2C(=O)NC(=O)C2(C)C)cc(C)c1CCS(=O)(=O)N1CCC2(CC1)N=C(c1ccc(OC(F)(F)F)cc1)NC2=O [PCO371, 1-{3,5-dimethyl-4-[2-({4-oxo-2-[4-(trifluoromethoxy)phenyl]-1,3,8-triazaspiro[4.5]dec-1-en-8-yl}sulfonyl)ethyl]phenyl}-5,5-dimethylimidazolidine-2,4-dione]
- EC50 (hPTHR1): 2400 nM
- cAMP response [1]: responded well
- cAMP ([2]; cells expressing C1 or C2): did not do so
- cAMP response ([2]; single replacements M414V and L416V): only modest effects
- half-life [3]: 1.5 to 1.7 h
- AUC(0-inf) ([3]; 2 mg/kg): 374 ± 187 ng·h/mL
- Cmax ([3]; 2 mg/kg): 92.5 ± 37.1 ng/mL
- Tmax ([3]; 2 mg/kg): 1.5 ± 0.9 h
- half-life ([3]; 2 mg/kg): 1.5 ± 0.1 h
- AUC(0-inf) ([3]; 6 mg/kg): 2360 ng·h/mL
- Cmax ([3]; 6 mg/kg): 727 ± 103 ng/mL
- Tmax ([3]; 6 mg/kg): 1 h
- half-life ([3]; 6 mg/kg): 1.4 ± 0.2 h
- AUC(0-inf) ([3]; 18 mg/kg): 18600 ng·h/mL
- Cmax ([3]; 18 mg/kg): 4560 ng/mL
- Tmax ([3]; 18 mg/kg): 1.3 ± 0.6 h
- half-life ([3]; 18 mg/kg): 1.7 ± 0.3 h
- BA (oral bioavailability) ([3]; normal rats, p.o. 2 mg kg^−1): 34%
- time at which Cmax was attained ([3]; normal rats, single oral dose, dose range tested): 1 to 1.5 h
- half-life ([4]; p.o. 2 mg kg-1): 6.9 ± 2.3 h
- AUC ([4]; p.o. 2 mg kg-1, read-out: AUC): 464 ± 125 ng·h/mL
- Cmax ([4]; p.o. 2 mg kg-1, read-out: Cmax): 95.6 ± 84.4 ng/mL
- Tmax ([4]; p.o. 2 mg kg-1, read-out: Tmax): 1.4 ± 1 h
- half-life ([4]; p.o. 6 mg kg-1): 4.9 ± 0.6 h
- AUC ([4]; p.o. 6 mg kg-1, read-out: AUC): 1590 ng·h/mL
- Cmax ([4]; p.o. 6 mg kg-1, read-out: Cmax): 216 ± 103 ng/mL
- Tmax ([4]; p.o. 6 mg kg-1, read-out: Tmax): 1.3 ± 0.6 h
- half-life ([4]; p.o. 18 mg kg-1): 4.7 ± 0.7 h
- AUC ([4]; p.o. 18 mg kg-1, read-out: AUC): 9210 ng·h/mL
- Cmax ([4]; p.o. 18 mg kg-1, read-out: Cmax): 1630 ng/mL
- Tmax ([4]; p.o. 18 mg kg-1, read-out: Tmax): 3.7 ± 3.8 h
- concentration at 2 min ([5]; i.v. 3 mg kg-1, read-out: C2min (concentration at 2 min after administration)): 17500 ng/mL
- concentration at 2 min ([5]; i.v. 10 mg kg-1, read-out: C2min (concentration at 2 min after administration)): 50100 ng/mL
- cAMP production (rat PTHR2): did not stimulate cAMP production
